Assays:
Format in all cases: in vivo
[1] = system: Mammary Adenocarcinoma 16/C/RP; test: antitumor activity in mice against Mammary Adenocarcinoma 16/C/RP
Protocol: (§1) Representative examples of the invention were tested for antitumor activity in mice according to the following procedure:
(§2) The animals were pooled, implanted subcutaneously with 30 to 60 mg tumor fragments by 12-gauge trocar, and again pooled before unselective distribution to the various treatment and control groups. For early-stage treatment, chemotherapy was started within 1 to 5 days after tumor implantation while the number of cells was relatively small (10^7 to 10^8 cells). For advanced-stage treatment, chemotherapy was delayed until the tumor became relatively large (200 to 300 mg in size). A 300-mg tumor contains approximately 3×10^8 total cells. Tumors within a given advanced-stage trial were within a 2.5-fold size range for 90% of the animals. Tumors were measured with a caliper weekly (or twice weekly for the more rapidly growing tumors). Mice were sacrificed when their tumors reached 1500 mg (i.e., before they can cause the animal discomfort). Tumor weights were estimated from two-dimensional measurements.
The treatment and control groups were measured when the control group tumors reached approximately 700 to 1200 mg in size (Median of Group). The median tumor weight of each group was determined (including zeros). The T/C value (weight of treated tumors over the weight of control tumors) in percent is an indication of antitumor effectiveness: A T/C equal to or less than 42% is considered significant antitumor activity by the Drug Evaluation Branch of the Division of Cancer Treatment (NCl). A T/C value <10% is considered to indicate highly significant antitumor activity. A body weight loss nadir (mean of group) of greater than 20% or greater than 20% drug-deaths is considered to indicate an excessively toxic dosage.

[2] = system: pancreatic ductal adenocarcinoma #03; test: antitumor activity in mice against pancreatic ductal adenocarcinoma #03 (Panc 03)
Protocol: as §1
as §2, with “Tumors within a given advanced-stage trial were within a 2.5-fold size range for 90% of the animals.” left out
(§3) The treatment and control groups were measured when the control group tumors reached approximately 700 to 1200 mg in size (Median of Group). The median tumor weight of each group was determined (including zeros). […] A T/C value <10% is considered to indicate highly significant antitumor activity.
(§4) The results are shown in Table I for pancreatic ductal adenocarcinoma #03 and in Table 2 for colon adenocarcinoma #38.

[3] = system: P388/adriamycin resistant leukemia; test: P388/adriamycin resistant leukemia, cells implanted i.v.
[4] = system: colon adenocarcinoma #38; test: antitumor activity in mice against colon adenocarcinoma #38
Protocol: as §1
as §2, with “Tumors within a given advanced-stage trial were within a 2.5-fold size range for 90% of the animals.” left out
as §3, §4

[5] = 400 mg/kg total, i.v. infusion days 1, 4
[6] = 600 mg/kg total, i.v. infusion days 1, 4
[7] = 900 mg/kg total, i.v. infusion days 1, 4
[8] = Table 1, average body weight 25 g, total doses as in E1
[9] = 10^6 cells, 280 mg/kg total, i.v. 3 hour infusion day 1
[10] = 10^6 cells, 450 mg/kg total, i.v. 3 hour infusion day 1
[11] = 10^6 cells, 112 mg/kg total, i.v.→p.o. days 1, 4
[12] = 10^6 cells, 248 mg/kg total, i.v.→p.o. days 1, 4
[13] = 10^6 cells, 76 mg/kg total, i.v. […] infusion day 1
[14] = 10^6 cells, 123 mg/kg total, i.v. […] infusion day 1
[15] = 10^6 cells, 198 mg/kg total, i.v. […] infusion day 1
[16] = 10^6 cells, 320 mg/kg total, i.v. […] infusion day 1
[17] = 10^5 cells, 150 mg/kg total, i.v. 3 hour infusion days 1, 4
[18] = 10^5 cells, 300 mg/kg total, i.v. 3 hour infusion days 1, 4
[19] = 10^5 cells, 450 mg/kg total, i.v. 3 hour infusion days 1, 4
[20] = Mus musculus, ip, read-out: T/C
[21] = Table 2, i.p., total dose mg/kg by Example: 10:340, 11:518
[22] = Table 2, p.o., total dose mg/kg by Example: 10:460, 11:885
[23] = Table 2, p.o., total dose mg/kg by Example: 10:740, 11:1709
[24] = Table 2, total dose 160 mg/kg i.p.
[25] = Table 2, total dose 200 mg/kg i.p.
[26] = Table 2, total dose 865 mg/kg i.p.
[27] = 10^5 cells, 200 mg/kg total, i.v. 3 hour infusion days 1, 4
[28] = 10^5 cells, 320 mg/kg total, i.v. 3 hour infusion days 1, 4
[29] = 10^5 cells, 520 mg/kg total, i.v. 3 hour infusion days 1, 4
[30] = Table 2, total dose 327 mg/kg, i.v. days 3-6 and p.o. days 7-10
[31] = Table 2, total dose 529 mg/kg, i.v. days 3-6 and p.o. days 7-10
[32] = Table 2, total dose 852 mg/kg, i.v. days 3-6 and p.o. days 7-10
[33] = Table 2, i.v., total dose mg/kg by Example: 6:82, 16(a):690, 18(e):120

## CCN(CC)CCNc1ccc(CNC)c2sc3ccc(OC)cc3c(=O)c12 [Example 30(h), 1-[[2-(Diethylamino)ethyl]amino]-4-[(methylamino)methyl]-7-methoxy-thioxanthen-9-one]
[1]; [5]
  Drug Deaths: 0/5
  T/C Value: 46%
  Wt. Loss at Nadir: -1.0 g/mouse
[1]; [6]
  Drug Deaths: 0/5
  T/C Value: 23%
  Wt. Loss at Nadir: -0.7 g/mouse
[1]; [7]
  Drug Deaths: 1/6
  T/C Value: 29%
  Wt. Loss at Nadir: 0 g/mouse
[2]
  T/C: 0%
[2]; [8]
  Weight Loss: 1.4 g
[2]; Table 1, total doses as in E1
  Drug Deaths: 0
[3]; [9]
  Drug Deaths: 0/7
  Wt. Loss at Nadir: -1.7 g/mouse
[3]; [10]
  Drug Deaths: 0/7
  Wt. Loss at Nadir: -2.3 g/mouse
[3]; iv, 280 mg/kg
  % ILS (percentage increase in lifespan): 69%
  Log10 Tumor cell kill: 6.0
  Tumor Cell: 2/7
[3]; iv, 450 mg/kg
  % ILS (percentage increase in lifespan): 62%
  Log10 Tumor cell kill: 5.3
  Tumor Cell: 0/7

## CCN(CC)CCNc1ccc(CNS(C)(=O)=O)c2sc3ccc(OC)cc3c(=O)c12 [31(c)]
[1]; 109.6 mg/kg total, i.v. 2X/day, days 3-6
  T/C Value: 6%
[1]; 156.8 mg/kg total, i.v. 2X/day, days 3-6
  T/C Value: 5%
[1]; 224 mg/kg total, i.v. 2X/day, days 3-6
  T/C Value: 0%
[1]; mouse, in vivo
  Drug Deaths: 0
[2]
  T/C: 0%
[2]; Table 1, total doses as in E1
  Drug Deaths: 0
[2]; mouse, in vivo
  Weight Loss: 5.6 g
[3]; [11]
  % ILS (percentage increase in lifespan): 0%
  Log10 Tumor cell kill: 0
  Wt. Loss at Nadir: -2.7 g/mouse
[3]; [12]
  % ILS (percentage increase in lifespan): 0%
  Log10 Tumor cell kill: 0
  Wt. Loss at Nadir: -3.0 g/mouse
[3]; mouse, in vivo, 112 mg/kg
  Drug Deaths: 0/6
[3]; mouse, in vivo, 248 mg/kg
  Drug Deaths: 1/6

## CCN(CC)CCNc1ccc(CNC(=O)OC)c2sc3ccccc3c(=O)c12 [Example 34, Methyl N-[[1-[[2-(diethylamino)ethyl]amino]-9-oxothioxanthen-4-yl]methyl]carbamate]
[2]; [8]
  Weight Loss: 3.6 g
[2]; Table 1, total doses as in E1
  Drug Deaths: 0
[3]; [13]
  Drug Deaths: 0/5
  Wt. Loss at Nadir: -0.4 g/mouse
[3]; [14]
  Drug Deaths: 0/5
  Wt. Loss at Nadir: -1.2 g/mouse
[3]; [15]
  Drug Deaths: 0/5
  Wt. Loss at Nadir: -1.2 g/mouse
[3]; [16]
  % ILS (percentage increase in lifespan): toxic
  Drug Deaths: 5/5
  Log10 Tumor cell kill: LD100
  Wt. Loss at Nadir: -3.6 g/mouse
[3]; iv, 76 mg/kg
  % ILS (percentage increase in lifespan): 0%
  Log10 Tumor cell kill: 0
  Tumor Cell: 0/5
[3]; iv, 123 mg/kg
  % ILS (percentage increase in lifespan): 8.3%
  Log10 Tumor cell kill: 0.7
  Tumor Cell: 0/5
[3]; iv, 198 mg/kg
  % ILS (percentage increase in lifespan): 41.7%
  Log10 Tumor cell kill: 3.3
  Tumor Cell: 0/5
[3]; iv, 320 mg/kg
  Tumor Cell: 0/5

## CCN(C=O)Cc1ccc(NCCN(CC)CC)c2c(=O)c3ccccc3sc12 [Example 13, N-[[1-[[2-(Diethylamino)ethyl]amino]-9-oxothioxanthen-4-yl]methyl]-N-ethylformamide]
[2]
  T/C: 0%
[2]; [8]
  Weight Loss: 2.4 g
[2]; Table 1, total doses as in E1
  Drug Deaths: 0
[3]; [17]
  Drug Deaths: 0/8
  Wt. Loss at Nadir: -1.75 g/mouse
[3]; [18]
  Drug Deaths: 0/7
  Wt. Loss at Nadir: -1.75 g/mouse
[3]; [19]
  Drug Deaths: 2/7
  Wt. Loss at Nadir: -3.0 g/mouse
[3]; iv, 150 mg/kg, 3 h
  % ILS (percentage increase in lifespan): 8%
  Log10 Tumor cell kill: 0.5
[3]; iv, 300 mg/kg
  Tumor Cell: 0/7
[3]; iv, 300 mg/kg, 3 h
  % ILS (percentage increase in lifespan): 15%
  Log10 Tumor cell kill: 1.0
[3]; iv, 450 mg/kg
  Tumor Cell: 0/7
[3]; iv, 450 mg/kg, 3 h
  % ILS (percentage increase in lifespan): 38%
  Log10 Tumor cell kill: 2.5

## CCN(CC)CCNc1ccc(CNC(C)=O)c2sc3ccccc3c(=O)c12 [Example 10, N-[[1-[[2-(Diethylamino)ethyl]amino]-9-oxo-thioxanthen-4-yl]methyl]acetamide]
[4]; [20]
  response vs control in vivo at 160 mg/kg: 22%
  response vs control in vivo at 200 mg/kg: 24%
  response vs control in vivo at 865 mg/kg: 23%
[4]; [21]
  Drug Deaths: 0
  Weight Loss: 4.0 g
[4]; [22]
  Drug Deaths: 0
  Weight Loss: 1.2 g
[4]; [23]
  Drug Deaths: 2/5
  Weight Loss: 4.0 g
[4]; [24]
  Drug Deaths: 0
  Weight Loss: 0.6 g
[4]; [25]
  Drug Deaths: 0
  Weight Loss: 2.3 g
[4]; [26]
  Drug Deaths: 0
  Weight Loss: 2.0 g
[2]; [8]
  Weight Loss: 2.4 g
[2]; Table 1, total doses as in E1
  Drug Deaths: 0
[3]; [27]
  Drug Deaths: 0/7
  Wt. Loss at Nadir: -1.5 g/mouse
[3]; [28]
  Drug Deaths: 0/5
  Wt. Loss at Nadir: -1.75 g/mouse
[3]; [29]
  Drug Deaths: 3/7
  Wt. Loss at Nadir: -3.75 g/mouse
[3]; iv, 200 mg/kg
  Tumor Cell: 0/7
[3]; iv, 200 mg/kg, 3 h
  % ILS (percentage increase in lifespan): 8%
  Log10 Tumor cell kill: 0.5
[3]; iv, 320 mg/kg
  Tumor Cell: 0/5
[3]; iv, 320 mg/kg, 3 h
  % ILS (percentage increase in lifespan): 23%
  Log10 Tumor cell kill: 1.5
[3]; iv, 520 mg/kg, 3 h
  % ILS (percentage increase in lifespan): 54%
  Log10 Tumor cell kill: 3.5

## CCN(CC)CCNc1ccc(CN(CC)S(C)(=O)=O)c2sc3ccccc3c(=O)c12 [Example 25, N-[[1-[[2-(Diethylamino)ethyl]amino]-9-oxothioxanthen-4-yl]methyl]-N-ethyl-methanesulfonamide]
[4]; Mus musculus, read-out: T/C
  response vs control in vivo at 327 mg/kg: 0%
  response vs control in vivo at 529 mg/kg: 0%
  response vs control in vivo at 852 mg/kg: 0%
[4]; [30]
  Drug Deaths: 0
  Weight Loss: 0.8 g
[4]; [31]
  Drug Deaths: 0
  Weight Loss: 0.6 g
[4]; [32]
  Drug Deaths: 4/5
  Weight Loss: 4.8 g
[2]
  T/C: 0%
[2]; [8]
  Weight Loss: 4.6 g
[2]; Table 1, total doses as in E1
  Drug Deaths: 0

## CCN(CC)CCNc1ccc(CNC(=O)C(F)(F)F)c2sc3ccccc3c(=O)c12 [16(a), N-[[1-[[2-(Diethylamino)ethyl]amino]-9-oxothioxanthen-4-yl]methyl]-trifluoroacetamide]
[4]; Table 2, i.v., total dose mg/kg by Example: 2:600, 5:960, 6:132, 7:840, 16(a):1000, 18(e):180
  Drug Deaths: 0
[4]; [33]
  Drug Deaths: 0
  Weight Loss: 1.5 g
[4]; mouse, in vivo, iv
  Weight Loss: 1.2 g
[2]
  T/C: 21%
[2]; [8]
  Weight Loss: +0.8 g
[2]; Table 1, total doses as in E1
  Drug Deaths: 0

Source: patent publication US5665760A, “Lyophilized thioxanthenone antitumor agents” (priority 1995, dated 1997)
